Earlier results, collected in patent publication US20110245283A1, “Methods for predicting the response to statins” (priority 2009, published 2011).
Where two headings read alike, the source gives them in different places.

Settings: cited from earlier work

COC(=O)N[C@H](C(=O)N[C@@H](Cc1ccccc1)[C@@H](O)CN(Cc1ccc(-c2ccccn2)cc1)NC(=O)[C@@H](NC(=O)OC)C(C)(C)C)C(C)(C)C [Atazanavir]
Increased risk of toxicity or reduced statin effectiveness (with Atorva): (+) | Severity of the interaction (with Atorva): 3 | Increased risk of toxicity or reduced statin effectiveness (with Lova): (+) | Severity of the interaction (with Lova): 3 | Increased risk of toxicity or reduced statin effectiveness (with Simva): (+) | Severity of the interaction (with Simva): 3

CC(=O)N1CCN(c2ccc(OCC3COC(Cn4ccnc4)(c4ccc(Cl)cc4Cl)O3)cc2)CC1 (centres unmarked) [Ketoconazole]
Increased risk of toxicity or reduced statin effectiveness (with Atorva): (+) | Severity of the interaction (with Atorva): 3 | Increased risk of toxicity or reduced statin effectiveness (with Lova): (+) | Severity of the interaction (with Lova): 3 | Increased risk of toxicity or reduced statin effectiveness (with Simva): (+) | Severity of the interaction (with Simva): 3

CC(C)(Oc1ccc(CCNC(=O)c2ccc(Cl)cc2)cc1)C(=O)O [Bezafibrate]
Increased risk of toxicity or reduced statin effectiveness (with Atorva): (+) | Severity of the interaction (with Atorva): 3 | Increased risk of toxicity or reduced statin effectiveness (with Fluva): (+) | Severity of the interaction (with Fluva): 3 | Increased risk of toxicity or reduced statin effectiveness (with Lova): (+) | Severity of the interaction (with Lova): 3 | Increased risk of toxicity or reduced statin effectiveness (with Prava): (+) | Severity of the interaction (with Prava): 3 | Increased risk of toxicity or reduced statin effectiveness (with Simva): (+) | Severity of the interaction (with Simva): 3

Cc1c(C)c2c(c(C)c1O)CCC(C)(COc1ccc(CC3SC(=O)NC3=O)cc1)O2 (centres unmarked) [Troglitazone]
Severity of the interaction (with Simva): 1

CC(C)CN(C[C@@H](OP(=O)(O)O)[C@H](Cc1ccccc1)NC(=O)O[C@H]1CCOC1)S(=O)(=O)c1ccc(N)cc1 [Fosamprenavir]
Increased risk of toxicity or reduced statin effectiveness (with Atorva): (+) | Severity of the interaction (with Atorva): 3 | Increased risk of toxicity or reduced statin effectiveness (with Lova): (+) | Severity of the interaction (with Lova): 3 | Increased risk of toxicity or reduced statin effectiveness (with Simva): (+) | Severity of the interaction (with Simva): 3

COC(=O)[C@H](c1ccccc1Cl)N1CCc2sccc2C1 [Clopidogrel]
Increased risk of toxicity or reduced statin effectiveness (with Fluva): (+) | Severity of the interaction (with Fluva): 2

Cc1ccc(C)c(OCCCC(C)(C)C(=O)O)c1 [Gemfibrozil]
Increased risk of toxicity or reduced statin effectiveness (with Atorva): (+) | Severity of the interaction (with Atorva): 3 | Increased risk of toxicity or reduced statin effectiveness (with Fluva): (+) | Severity of the interaction (with Fluva): 3 | Increased risk of toxicity or reduced statin effectiveness (with Lova): (+) | Severity of the interaction (with Lova): 3 | Increased risk of toxicity or reduced statin effectiveness (with Prava): (+) | Severity of the interaction (with Prava): 3 | Increased risk of toxicity or reduced statin effectiveness (with Rosuva): (+) | Severity of the interaction (with Rosuva): 3 | Increased risk of toxicity or reduced statin effectiveness (with Simva): (+) | Severity of the interaction (with Simva): 3

OC(Cn1cncn1)(Cn1cncn1)c1ccc(F)cc1F [Fluconazole]
Increased risk of toxicity or reduced statin effectiveness (with Atorva): (+) | Increased risk of toxicity or reduced statin effectiveness (with Fluva): (+) | Increased risk of toxicity or reduced statin effectiveness (with Lova): (+) | Increased risk of toxicity or reduced statin effectiveness (with Rosuva): (+) | Increased risk of toxicity or reduced statin effectiveness (with Simva): (+)

Cc1c(O)cccc1C(=O)N[C@@H](CSc1ccccc1)[C@H](O)CN1C[C@H]2CCCC[C@H]2C[C@H]1C(=O)NC(C)(C)C [Nelfinavir]
Increased risk of toxicity or reduced statin effectiveness (with Atorva): (+) | Severity of the interaction (with Atorva): 3 | Increased risk of toxicity or reduced statin effectiveness (with Lova): (+) | Severity of the interaction (with Lova): 3 | Increased risk of toxicity or reduced statin effectiveness (with Simva): (+) | Severity of the interaction (with Simva): 3

CC(C)(C)NC(=O)[C@@H]1C[C@@H]2CCCC[C@@H]2CN1C[C@@H](O)[C@H](Cc1ccccc1)NC(=O)[C@H](CC(N)=O)NC(=O)c1ccc2ccccc2n1 [Saquinavir]
Increased risk of toxicity or reduced statin effectiveness (with Atorva): (+) | Increased risk of toxicity or reduced statin effectiveness (with Lova): (+) | Increased risk of toxicity or reduced statin effectiveness (with Simva): (+)

O=C1NC(c2ccccc2)(c2ccccc2)C(=O)N1COP(=O)(O)O [Fosphenytoin]
Severity of the interaction (with Atorva): 2 | Severity of the interaction (with Simva): 2

O=C1NC(=O)C(c2ccccc2)(c2ccccc2)N1 [Phenytoin]
Severity of the interaction (with Atorva): 2 | Increased risk of toxicity or reduced statin effectiveness (with Fluva): (+) | Severity of the interaction (with Fluva): 2 | Severity of the interaction (with Simva): 2

C#C[C@]1(O)CC[C@H]2[C@@H]3CCC4=Cc5oncc5C[C@]4(C)[C@H]3CC[C@@]21C [Danazol]
Increased risk of toxicity or reduced statin effectiveness (with Simva): (+)

Colestipol
Severity of the interaction (with Prava): 2

COc1ccc2nc([S@@+]([O-])Cc3ncc(C)c(OC)c3C)[nH]c2c1 [Esomeprazole]
Increased risk of toxicity or reduced statin effectiveness (with Atorva): (+) | Severity of the interaction (with Atorva): 3

CC(C)Nc1cccnc1N1CCN(C(=O)c2cc3cc(NS(C)(=O)=O)ccc3[nH]2)CC1 [Delavirdine]
Increased risk of toxicity or reduced statin effectiveness (with Atorva): (+) | Severity of the interaction (with Atorva): 2

COc1ccccc1Oc1c(NS(=O)(=O)c2ccc(C(C)(C)C)cc2)nc(-c2ncccn2)nc1OCCO [Bosentan]
Severity of the interaction (with Atorva): 2 | Severity of the interaction (with Lova): 2 | Severity of the interaction (with Simva): 2

CC[C@H]1OC(=O)[C@H](C)[C@@H](O[C@H]2C[C@@](C)(OC)[C@@H](O)[C@H](C)O2)[C@H](C)[C@@H](O[C@@H]2O[C@H](C)C[C@H](N(C)C)[C@H]2O)[C@](C)(OC)C[C@@H](C)C(=O)[C@H](C)[C@@H](O)[C@]1(C)O [Clarithromycin]
Increased risk of toxicity or reduced statin effectiveness (with Atorva): (+) | Severity of the interaction (with Atorva): 3 | Increased risk of toxicity or reduced statin effectiveness (with Lova): (+) | Severity of the interaction (with Lova): 3 | Increased risk of toxicity or reduced statin effectiveness (with Simva): (+) | Severity of the interaction (with Simva): 3

CCC(C)n1ncn(-c2ccc(N3CCN(c4ccc(OCC5COC(Cn6cncn6)(c6ccc(Cl)cc6Cl)O5)cc4)CC3)cc2)c1=O (centres unmarked) [Itraconazole]
Increased risk of toxicity or reduced statin effectiveness (with Atorva): (+) | Severity of the interaction (with Atorva): 3 | Increased risk of toxicity or reduced statin effectiveness (with Lova): (+) | Severity of the interaction (with Lova): 4 | Increased risk of toxicity or reduced statin effectiveness (with Rosuva): (+) | Severity of the interaction (with Rosuva): 2 | Increased risk of toxicity or reduced statin effectiveness (with Simva): (+) | Severity of the interaction (with Simva): 4

CCN(CC)CCS(=O)(=O)[C@@H]1CCN2C(=O)c3coc(n3)CC(=O)C[C@H](O)/C=C(C)/C=C/CNC(=O)/C=C/[C@@H](C)[C@@H](C(C)C)OC(=O)[C@@H]12 [Dalfopristin]
Increased risk of toxicity or reduced statin effectiveness (with Atorva): (+) | Severity of the interaction (with Atorva): 3 | Increased risk of toxicity or reduced statin effectiveness (with Fluva): (+) | Severity of the interaction (with Fluva): 3 | Increased risk of toxicity or reduced statin effectiveness (with Lova): (+) | Severity of the interaction (with Lova): 3 | Increased risk of toxicity or reduced statin effectiveness (with Prava): (+) | Severity of the interaction (with Prava): 3 | Increased risk of toxicity or reduced statin effectiveness (with Simva): (+) | Severity of the interaction (with Simva): 3

CC[C@H]1OC(=O)[C@H](C)C(=O)[C@H](C)[C@@H](O[C@@H]2O[C@H](C)C[C@H](N(C)C)[C@H]2O)[C@](C)(OC)C[C@@H](C)C(=O)[C@H](C)[C@H]2N(CCCCn3cnc(-c4cccnc4)c3)C(=O)O[C@]12C [Telithromycin]
Increased risk of toxicity or reduced statin effectiveness (with Atorva): (+) | Severity of the interaction (with Atorva): 3 | Increased risk of toxicity or reduced statin effectiveness (with Lova): (+) | Severity of the interaction (with Lova): 3 | Increased risk of toxicity or reduced statin effectiveness (with Simva): (+) | Severity of the interaction (with Simva): 3

CC(C)OC(=O)C(C)(C)Oc1ccc(C(=O)c2ccc(Cl)cc2)cc1 [Fenofibrate]
Increased risk of toxicity or reduced statin effectiveness (with Atorva): (+) | Increased risk of toxicity or reduced statin effectiveness (with Fluva): (+) | Increased risk of toxicity or reduced statin effectiveness (with Lova): (+) | Increased risk of toxicity or reduced statin effectiveness (with Prava): (+) | Increased risk of toxicity or reduced statin effectiveness (with Simva): (+)

CCCCc1oc2ccccc2c1C(=O)c1cc(I)c(OCCN(CC)CC)c(I)c1 [Amiodarone]
Severity of the interaction (with Lova): 3 | Severity of the interaction (with Simva): 3

CCc1nn(CCCN2CCN(c3cccc(Cl)c3)CC2)c(=O)n1CCOc1ccccc1 [Nefazodone]
Increased risk of toxicity or reduced statin effectiveness (with Atorva): (+) | Severity of the interaction (with Atorva): 3 | Increased risk of toxicity or reduced statin effectiveness (with Lova): (+) | Severity of the interaction (with Lova): 3 | Increased risk of toxicity or reduced statin effectiveness (with Prava): (+) | Severity of the interaction (with Prava): 2 | Increased risk of toxicity or reduced statin effectiveness (with Simva): (+) | Severity of the interaction (with Simva): 3

Cholestyramine
Severity of the interaction (with Fluva): 1 | Severity of the interaction (with Prava): 2

COCC(=O)O[C@]1(CCN(C)CCCc2nc3ccccc3[nH]2)CCc2cc(F)ccc2[C@@H]1C(C)C [Mibefradil]
Increased risk of toxicity or reduced statin effectiveness (with Atorva): (+) | Severity of the interaction (with Atorva): 3 | Increased risk of toxicity or reduced statin effectiveness (with Fluva): (+) | Severity of the interaction (with Fluva): 1 | Increased risk of toxicity or reduced statin effectiveness (with Lova): (+) | Severity of the interaction (with Lova): 4 | Increased risk of toxicity or reduced statin effectiveness (with Prava): (+) | Severity of the interaction (with Prava): 1 | Increased risk of toxicity or reduced statin effectiveness (with Simva): (+) | Severity of the interaction (with Simva): 4

CC(C)CN(C[C@@H](O)[C@H](Cc1ccccc1)NC(=O)O[C@H]1CCOC1)S(=O)(=O)c1ccc(N)cc1 [Amprenavir]
Increased risk of toxicity or reduced statin effectiveness (with Atorva): (+) | Severity of the interaction (with Atorva): 2 | Increased risk of toxicity or reduced statin effectiveness (with Lova): (+) | Severity of the interaction (with Lova): 3 | Increased risk of toxicity or reduced statin effectiveness (with Prava): (+) | Severity of the interaction (with Prava): 2 | Increased risk of toxicity or reduced statin effectiveness (with Simva): (+) | Severity of the interaction (with Simva): 3

CO[C@H]1/C=C/O[C@@]2(C)Oc3c(C)c(O)c4c(O)c(c(/C=N/N5CCN(C)CC5)c(O)c4c3C2=O)NC(=O)/C(C)=C\C=C\[C@H](C)[C@H](O)[C@@H](C)[C@@H](O)[C@@H](C)[C@H](OC(C)=O)[C@@H]1C [Rifampin]
Severity of the interaction (with Fluva): 1 | Severity of the interaction (with Simva): 2

CCOC(=O)C(C)(C)Oc1ccc(Cl)cc1 [Clofibrate]
Increased risk of toxicity or reduced statin effectiveness (with Atorva): (+) | Severity of the interaction (with Atorva): 3 | Increased risk of toxicity or reduced statin effectiveness (with Fluva): (+) | Severity of the interaction (with Fluva): 3 | Increased risk of toxicity or reduced statin effectiveness (with Lova): (+) | Severity of the interaction (with Lova): 3 | Increased risk of toxicity or reduced statin effectiveness (with Prava): (+) | Severity of the interaction (with Prava): 3 | Increased risk of toxicity or reduced statin effectiveness (with Simva): (+) | Severity of the interaction (with Simva): 3
